Laboratory results as given in US20230103965A1, “NOVEL ACTIVATORS OF THE LIPIDATING TRANSPORTER ATP BINDING CASSETTE PROTEIN TYPE 1 (AB-CA1) AND THERAPEUTIC USES THEREOF” (RAMOT AT TEL-AVIV UNIVERSITY LTD., priority 2020, published 2023).

Molecular target: T1, ECD2 of ABCA1 (Homo sapiens, UniProt O95477)
T1 construct: The proteins used in these experiments were Extra-Cellular Domain 1 (ECD1) of ABCA1 and Extra-Cellular Domain 2 (ECD2); purchased Biomatick
Experiment: Microscale thermophoresis (MST) binding to ECD2
Description: Microscale thermophoresis (MST) measurements. MST measurements of the binding of the HTS hits to the extracellular domain (ECD) of ABCA1 were performed by two complimentary methods utilizing either fluorescently labeled proteins or the endogenous fluorescence of unlabeled proteins. This was pursued as follows:
(i) MST utilizing labeled proteins: The proteins used in these experiments were Extra-Cellular Domain 1 (ECD1) of ABCA1 and Extra-Cellular Domain 2 (ECD2) which were provided by the manufacturer (Biomatick) at a concentration of 7.1 μM. The buffers of protein samples were exchanged on a desalting PD-10 column to MST labelling buffer (Nanotemper Technologies, NT.115). […] The concentrations of the labeled protein samples solutions were determined by Spectrophotometer (Carey 60) at 280 nm and 650 nm and adjusted to a final concentration 7.1 μM, aliquoted in 30 μl and stored at −80° C. for further use. Protein-compound interactions were analyzed by microscale thermophoresis. […] All dissociation constants (KD) were calculated to a binding model assuming a 1:1 stoichiometry per binding partner. […]
These experiments employed the MST ligand binding to protein assay (FIG. 13 and EXAMPLE 1). […] Two complementary MST tests were performed, in which either the proteins were labeled with a fluorescence moiety or the endogenous fluorescence of the unlabeled proteins was monitored).

T1 sequence (O95477 1372-1656 limits assumed): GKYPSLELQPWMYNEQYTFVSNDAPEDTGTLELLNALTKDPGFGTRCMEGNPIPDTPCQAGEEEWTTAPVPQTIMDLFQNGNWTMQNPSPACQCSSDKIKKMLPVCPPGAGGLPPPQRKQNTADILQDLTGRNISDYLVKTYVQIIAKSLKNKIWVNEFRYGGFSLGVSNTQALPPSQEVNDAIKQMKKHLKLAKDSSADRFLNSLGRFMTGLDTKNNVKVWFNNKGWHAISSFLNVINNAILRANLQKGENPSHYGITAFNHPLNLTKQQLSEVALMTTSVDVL

MST binding to ECD2	Compound
do not bind at all	Cc1nn(CC(=O)c2ccc(Br)s2)c(C)c1[N+](=O)[O-] [Hit #3]
do not bind at all	CC(C)(C)C(=O)COC(=O)c1ccccc1SCc1cc(-c2ccco2)on1 [Hit #4]
